Data on four compounds can be found in patent US20250255882A1, “TREATMENT OF CARDIAC CONDITION RELATED COGNITIVE DYSFUNCTION” (The Trustees of Columbia University in the City of New York, priority 2024, published 2025).

The target in data set [1] is RyR2 (Homo sapiens, UniProt Q92736). To be noted: previously identified binding site; cited from earlier work.
For data set [2], the target named is RyR2 (Mus musculus, UniProt E9Q401). Briefly: caffeine-induced Ca2+ release in primary hippocampal neurons. The data set is classed as cell-based. Set-up: representative images of 14-d cultured hippocampal neurons stimulated with 10 mM caffeine; endogenous in cells; host or cells: primary hippocampal neurons, 14 d in culture. To be noted: 10 mM caffeine; hippocampal neurons treated with the adrenergic agonist alone. Here is the method: FIG. 5A presents representative images of 14-d cultured hippocampal neurons stimulated with 10 mM caffeine. For each condition, the Ca^2+ levels are shown at baseline, during stimulation and at recovery. […] Individual values are shown with the mean±s.e.m. […] Scale bar, 10 μm. A reduction in caffeine-induced Ca^2+ release indicates a Ca^2+ depleted ER due to persistent RyR2-mediated Ca^2+ leak. Data are derived from biologically independent samples. All statistical tests were two sided.
To determine whether the activation of the adrenergic pathway indeed causes neuronal RyR2-mediated ER Ca^2+ leak, caffeine (10 mM), a well characterized RyR agonist, was used to assess RyR2 function specifically in hippocampal neurons without interference of other cell types such as glial cells or astrocytes.

The subject of the next data set is adrenergic pathway. The experiment in a line: hippocampal norepinephrine levels and PKA activity. The data set is classed as in vivo, mouse. To be noted: treated versus untreated MI mice. On the procedure: The hippocampal levels of norepinephrine and PKA activity were measured.
The test system of data set [3] is mouse model of HF (myocardial infarction, MI). Briefly: MWM test (long-term spatial learning and memory) with probe trial. Format: in vivo. The settings on record: MI mice, treated; for latency to find and reach the hidden platform: day 4 training trials, MI 30±1 s, SHAM 21±2 s. On the procedure:
(§1) One-way analysis of variance (ANOVA) was used to compare the difference between the six groups in FIGS. 2B, 2C, 2E and 2F. Tukey's test was used for multiple comparisons; two-way ANOVA was used in FIG. 2D. […] All statistical tests were two sided with the data derived from biologically independent samples.
A MWM test was performed to assess hippocampal-dependent long-term spatial learning and memory.
A probe trial was performed on day 5 of the MWM test.

The nature of data set [4]: blood-brain barrier crossing.
Data set [5] concerns MI mice. Briefly: hippocampal FDG metabolism by microPET. The data set is classed as in vivo, mouse. The settings on record: treated MI mice; percentage of the FDG uptake in the SHAM mice (SHAM 100±3, MI 70±3). The text has this: (§2) FIG. 4A is a schematic representation of a hippocampal brain slice for LTP experiments and the positioning of the stimulating and recording electrodes.
Thereafter, [^18F]fluorodeoxyglucose (FDG) with positron emission tomography (PET) was used to measure energy consumption in neurons, which reflects neuronal communication signals and the integrative local neuronal activity. Deteriorating brain glucose metabolism measured by FDG-PET has been used as a clinical marker for Alzheimer's disease diagnosis. Thus, hippocampal FDG metabolism was evaluated in the experimental groups (FIGS. 4E and 4F).

The subject of data set [6] is mouse model of HF (myocardial infarction, MI). The experiment in a line: open field test and elevated plus maze (EPM) test. The data set is classed as in vivo. To be noted: MI mice, treated. The text has this: FIGS. 2A-2G illustrate a mouse model of heart failure (myocardial infarction) that is associated with cognitive dysfunction. […] One-way analysis of variance (ANOVA) was used to compare the difference between the six groups in FIGS. 2B, 2C, 2E and 2F. Tukey's test was used for multiple comparisons; two-way ANOVA was used in FIG. 2D. […] All statistical tests were two sided with the data derived from biologically independent samples.
Because of the complexity of the clinical manifestation of HF patients, the mouse model of HF (myocardial infarction, MI) was used with reduced ejection fraction to evaluate the mechanisms of CD. The open field test and elevated plus maze (EPM) test were used to evaluate the behavioral phenotypes, and spontaneous exploratory activity in the mice. In the open field test, mice were placed at the center of a chamber and allowed to explore for 6 min. […] In the EPM test, MI mice spent […] time in the open arms of the EPM (FIG. 2B) compared to SHAM (0.22±0.04 versus 0.14±0.02; P<0.05). […] As a control, the effects of a Rycal®, ARM036, was studied.

The next data set has as its system TGF-β pathway. The experiment in a line: immunoblots of TGF-β, phosphorylated SMAD3 and NOX2 binding to RyR2 in hippocampi. The data set is classed as in vivo, mouse. To be noted: hippocampi of treated MI mice. The text has this: FIG. 12A includes immunoblots showing expressing levels of TGF-β, phosphorylated SMAD3, total SMAD3, and NOX2 binding to RyR2 in the hippocampi of controls (n=4) and HF patients (n=9). FIG. 12B includes bar graphs depicting the ratio of TGF-β expression normalized to GAPDH, phosphorylated SMAD3 to total SMAD3 and NOX2 binding to RyR2 (IP RyR2). The same quantity of proteins was loaded on two separate gels and blotted separately for SMAD3 and pSMAD3. Individual values are shown with mean±SEM (t-test * p<0.05, Controls vs. HF patients). […] FIG. 12D includes bar graphs depicting the ratio of TGF-β expression normalized to GAPDH, phosphorylated SMAD3 to total SMAD3 and NOX2 binding to RyR2 (IP RyR2). The same quantity of proteins was loaded on two separate gels and blotted separately for SMAD3 and pSMAD3. Individual values are shown with mean±SEM. […] All statistical tests were two-sided. Data are derived from biologically independent samples.
TGF-β has been implicated in CNS disorders including Alzheimer's disease.

For data set [7], the system named is MI mice. The experiment in a line: long-term potentiation (fEPSPs) in hippocampal slices. The data set is classed as in vivo, mouse. To be noted: slices from treated MI mice; MI decreased LTP versus SHAM. Here is the method:
as §2
Field excitatory postsynaptic potentials (fEPSPs) were evaluated at the Schaffer collateral using a bipolar electrode placed at the CA3 and recording at the CA1 (FIG. 4A). […] Importantly, MI and treatment with the various compounds after MI had no effect on basal synaptic transmission determined by the input-output curves (I-O; P=0.5; FIG. 4D).

Data set [8] deals with mouse model of HF (myocardial infarction, MI). The experiment in a line: novel object recognition test (hippocampal-dependent short-term memory). The data set is classed as in vivo. The settings on record: MI mice, treated; MI 15%±4%, SHAM 48%±5%.
Excerpt: as §1
Next, a novel object recognition test was used to evaluate hippocampal-dependent short-term memory. (see Liu, X. et al. Role of leaky neuronal ryanodine receptors in stress-induced cognitive dysfunction. Cell 150, 1055-1067 (2012); and Bevins, R. A. & Besheer, J. Object recognition in rats and mice: a one-trial non-matching-to-sample learning task to study ‘recognition memory’. Nat. Protoc. 1, 1306-1311 (2006)).

RyR2 (Homo sapiens, UniProt Q92736), sequence (Q92736 whole entry): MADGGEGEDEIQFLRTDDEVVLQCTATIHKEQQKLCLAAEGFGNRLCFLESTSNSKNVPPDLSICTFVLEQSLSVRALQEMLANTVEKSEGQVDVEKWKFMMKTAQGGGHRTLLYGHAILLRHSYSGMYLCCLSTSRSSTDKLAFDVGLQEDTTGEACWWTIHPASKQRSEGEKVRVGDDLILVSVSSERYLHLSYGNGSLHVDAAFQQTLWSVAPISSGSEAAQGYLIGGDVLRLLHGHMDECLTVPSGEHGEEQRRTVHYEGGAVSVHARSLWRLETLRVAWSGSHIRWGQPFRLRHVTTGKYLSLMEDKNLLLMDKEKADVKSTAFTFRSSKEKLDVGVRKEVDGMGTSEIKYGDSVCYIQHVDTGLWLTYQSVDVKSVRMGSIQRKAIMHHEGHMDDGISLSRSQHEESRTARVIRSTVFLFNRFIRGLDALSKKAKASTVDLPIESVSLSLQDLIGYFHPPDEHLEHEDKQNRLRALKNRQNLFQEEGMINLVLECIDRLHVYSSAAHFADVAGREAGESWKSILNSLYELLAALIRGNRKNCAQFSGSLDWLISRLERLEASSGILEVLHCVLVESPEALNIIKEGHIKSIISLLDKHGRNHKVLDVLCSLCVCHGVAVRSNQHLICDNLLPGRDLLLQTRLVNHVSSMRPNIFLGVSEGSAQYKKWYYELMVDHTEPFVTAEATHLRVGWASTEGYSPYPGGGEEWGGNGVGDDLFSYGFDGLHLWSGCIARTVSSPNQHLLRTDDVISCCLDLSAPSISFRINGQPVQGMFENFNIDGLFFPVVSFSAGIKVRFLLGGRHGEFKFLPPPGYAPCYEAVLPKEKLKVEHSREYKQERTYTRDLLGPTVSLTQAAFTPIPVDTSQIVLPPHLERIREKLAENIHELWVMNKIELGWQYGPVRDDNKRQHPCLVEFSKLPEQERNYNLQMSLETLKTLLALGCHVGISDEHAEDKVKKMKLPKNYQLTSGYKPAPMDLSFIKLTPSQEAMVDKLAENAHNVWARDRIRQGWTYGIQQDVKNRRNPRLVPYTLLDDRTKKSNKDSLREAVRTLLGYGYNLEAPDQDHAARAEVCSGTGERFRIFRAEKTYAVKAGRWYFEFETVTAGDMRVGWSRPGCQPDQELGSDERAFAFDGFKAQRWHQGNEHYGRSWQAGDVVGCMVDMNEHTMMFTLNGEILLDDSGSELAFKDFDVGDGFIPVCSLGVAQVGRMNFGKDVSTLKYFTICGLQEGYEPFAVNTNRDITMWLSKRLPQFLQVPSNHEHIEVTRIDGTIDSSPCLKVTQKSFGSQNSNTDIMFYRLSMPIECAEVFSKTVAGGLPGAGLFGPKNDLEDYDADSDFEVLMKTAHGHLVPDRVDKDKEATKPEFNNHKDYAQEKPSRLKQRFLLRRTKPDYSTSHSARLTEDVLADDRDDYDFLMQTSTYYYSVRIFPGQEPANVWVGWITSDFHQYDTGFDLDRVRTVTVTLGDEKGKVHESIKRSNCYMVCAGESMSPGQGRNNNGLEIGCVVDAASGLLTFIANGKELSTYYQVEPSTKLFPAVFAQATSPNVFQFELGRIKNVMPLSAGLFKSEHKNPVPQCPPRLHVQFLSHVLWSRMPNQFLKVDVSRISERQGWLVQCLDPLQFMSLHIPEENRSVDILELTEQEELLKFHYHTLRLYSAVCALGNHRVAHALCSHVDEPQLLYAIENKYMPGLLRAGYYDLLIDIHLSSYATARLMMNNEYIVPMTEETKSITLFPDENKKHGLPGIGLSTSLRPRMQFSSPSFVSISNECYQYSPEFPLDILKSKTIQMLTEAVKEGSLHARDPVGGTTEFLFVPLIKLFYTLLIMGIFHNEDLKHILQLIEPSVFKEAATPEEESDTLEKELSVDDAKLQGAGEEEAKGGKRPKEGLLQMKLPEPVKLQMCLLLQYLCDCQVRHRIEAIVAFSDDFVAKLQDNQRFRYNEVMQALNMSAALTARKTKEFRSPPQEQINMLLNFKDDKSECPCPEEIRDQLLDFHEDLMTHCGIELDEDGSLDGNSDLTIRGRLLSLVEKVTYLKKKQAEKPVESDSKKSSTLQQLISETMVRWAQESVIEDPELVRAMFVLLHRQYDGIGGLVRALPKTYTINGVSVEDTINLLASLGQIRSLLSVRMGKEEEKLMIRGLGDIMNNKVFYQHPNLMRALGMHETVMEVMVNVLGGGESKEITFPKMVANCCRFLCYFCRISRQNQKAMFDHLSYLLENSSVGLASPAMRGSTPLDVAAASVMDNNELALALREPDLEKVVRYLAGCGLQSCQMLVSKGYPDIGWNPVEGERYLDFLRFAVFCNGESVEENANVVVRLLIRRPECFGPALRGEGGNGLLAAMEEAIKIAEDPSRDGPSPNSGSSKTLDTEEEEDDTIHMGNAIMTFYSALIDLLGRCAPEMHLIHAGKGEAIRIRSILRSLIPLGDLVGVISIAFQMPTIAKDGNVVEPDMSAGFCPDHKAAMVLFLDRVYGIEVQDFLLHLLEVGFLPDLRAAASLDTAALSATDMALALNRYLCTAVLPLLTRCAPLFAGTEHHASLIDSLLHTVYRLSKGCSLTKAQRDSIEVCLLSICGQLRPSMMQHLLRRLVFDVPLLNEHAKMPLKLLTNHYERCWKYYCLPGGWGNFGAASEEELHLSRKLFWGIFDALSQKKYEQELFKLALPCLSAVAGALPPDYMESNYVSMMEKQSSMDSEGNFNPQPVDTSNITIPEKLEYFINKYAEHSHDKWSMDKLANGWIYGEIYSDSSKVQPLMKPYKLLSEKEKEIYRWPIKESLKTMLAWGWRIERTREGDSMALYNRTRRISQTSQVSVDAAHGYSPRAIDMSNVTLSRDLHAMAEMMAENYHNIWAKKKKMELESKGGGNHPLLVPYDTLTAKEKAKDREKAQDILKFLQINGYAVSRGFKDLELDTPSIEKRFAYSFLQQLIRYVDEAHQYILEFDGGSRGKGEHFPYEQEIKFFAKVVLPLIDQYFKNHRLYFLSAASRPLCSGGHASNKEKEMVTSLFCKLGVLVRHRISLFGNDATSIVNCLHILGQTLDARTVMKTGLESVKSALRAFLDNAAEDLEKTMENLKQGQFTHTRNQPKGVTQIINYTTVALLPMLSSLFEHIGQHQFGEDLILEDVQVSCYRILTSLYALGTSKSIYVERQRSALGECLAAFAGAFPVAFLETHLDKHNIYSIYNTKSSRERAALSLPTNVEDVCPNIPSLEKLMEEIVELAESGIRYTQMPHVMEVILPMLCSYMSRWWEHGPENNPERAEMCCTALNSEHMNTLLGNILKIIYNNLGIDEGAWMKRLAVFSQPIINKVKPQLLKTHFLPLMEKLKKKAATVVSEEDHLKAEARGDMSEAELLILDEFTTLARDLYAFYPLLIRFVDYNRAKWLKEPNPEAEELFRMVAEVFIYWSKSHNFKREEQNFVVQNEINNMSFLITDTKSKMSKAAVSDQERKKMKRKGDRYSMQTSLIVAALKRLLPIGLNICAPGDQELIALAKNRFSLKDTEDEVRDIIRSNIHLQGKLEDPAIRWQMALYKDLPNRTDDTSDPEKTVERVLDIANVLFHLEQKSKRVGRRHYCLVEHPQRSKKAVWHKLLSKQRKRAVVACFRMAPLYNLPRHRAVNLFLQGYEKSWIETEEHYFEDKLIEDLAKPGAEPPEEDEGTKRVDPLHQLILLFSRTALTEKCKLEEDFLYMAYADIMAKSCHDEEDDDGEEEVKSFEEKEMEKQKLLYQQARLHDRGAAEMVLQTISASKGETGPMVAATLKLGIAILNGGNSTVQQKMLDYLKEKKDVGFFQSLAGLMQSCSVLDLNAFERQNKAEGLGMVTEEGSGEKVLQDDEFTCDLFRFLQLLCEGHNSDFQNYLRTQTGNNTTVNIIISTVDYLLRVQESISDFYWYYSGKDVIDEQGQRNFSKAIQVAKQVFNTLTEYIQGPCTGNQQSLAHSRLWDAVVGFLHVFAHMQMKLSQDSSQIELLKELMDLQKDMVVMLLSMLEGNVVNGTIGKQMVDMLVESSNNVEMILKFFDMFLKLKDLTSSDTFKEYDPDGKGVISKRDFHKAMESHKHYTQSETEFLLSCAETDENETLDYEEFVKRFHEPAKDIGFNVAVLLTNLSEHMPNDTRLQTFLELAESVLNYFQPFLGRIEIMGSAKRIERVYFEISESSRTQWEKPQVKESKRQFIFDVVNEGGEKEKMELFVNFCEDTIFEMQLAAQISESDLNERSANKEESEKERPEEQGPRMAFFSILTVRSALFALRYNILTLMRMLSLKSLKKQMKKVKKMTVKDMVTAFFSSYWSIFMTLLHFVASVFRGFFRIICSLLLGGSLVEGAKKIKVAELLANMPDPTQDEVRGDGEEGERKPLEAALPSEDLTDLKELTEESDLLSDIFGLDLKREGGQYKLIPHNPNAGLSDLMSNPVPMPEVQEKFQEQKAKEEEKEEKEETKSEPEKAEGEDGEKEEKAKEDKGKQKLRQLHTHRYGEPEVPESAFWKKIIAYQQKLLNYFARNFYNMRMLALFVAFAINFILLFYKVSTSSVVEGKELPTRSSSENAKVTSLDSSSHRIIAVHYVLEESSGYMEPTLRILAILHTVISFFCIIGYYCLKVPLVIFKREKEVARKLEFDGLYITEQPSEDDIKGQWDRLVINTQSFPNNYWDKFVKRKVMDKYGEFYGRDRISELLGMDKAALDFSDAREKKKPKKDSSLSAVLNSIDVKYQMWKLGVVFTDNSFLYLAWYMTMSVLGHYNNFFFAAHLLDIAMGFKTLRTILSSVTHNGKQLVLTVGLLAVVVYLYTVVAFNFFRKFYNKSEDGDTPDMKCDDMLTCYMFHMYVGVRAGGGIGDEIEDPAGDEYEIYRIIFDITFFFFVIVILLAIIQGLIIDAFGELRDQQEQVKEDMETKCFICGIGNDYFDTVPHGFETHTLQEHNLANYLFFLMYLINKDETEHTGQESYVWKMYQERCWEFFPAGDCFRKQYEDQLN
RyR2 (Homo sapiens, UniProt Q92736), sequence (P68106 whole entry partner): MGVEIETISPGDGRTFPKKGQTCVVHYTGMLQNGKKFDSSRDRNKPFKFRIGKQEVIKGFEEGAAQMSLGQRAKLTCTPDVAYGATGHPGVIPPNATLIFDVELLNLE

With `COc1ccc2c(c1)CN(Cc1ccc(C(=O)O)cc1)CCS2` [Compound 1], the “effect on primed state of leaky channels” value at RyR2 [1] was “reverse the primed state of leaky channels toward a fully closed state”.
As to `CC(C)NCC(O)c1ccc(O)c(O)c1` (centres unmarked) [isoproterenol], on RyR2 [2], the “caffeine-induced Ca2+ release” value is “small Ca^2+ release”.
As to `COc1ccc2c(c1)CN(C)CCS2` [S107], in the data set on adrenergic pathway, the PKA activity entry is recorded as “no effect” and the brain norepinephrine entry is recorded as “no effect”. The target crossings in data set [3] (60-s probe trial day 5, MI 2.4±0.3, SHAM 4.6±0.3) worked out at 4.2±0.3. Besides, the “time spent in the target quadrant” value in data set [3] (60-s probe trial day 5, MI 17±1 s, SHAM 25±2 s) turned out to be 26 ± 2 s. Also, in data set [3], the “latency to find and reach the hidden platform” value was found to be 20 ± 2 s. In addition, in data set [4], the “crossing of the blood-brain barrier (BBB)” value was “BBB-permeant”. Moreover, the “hippocampal FDG metabolism” value in the data set with MI mice [5] stood at 114±13.
Regarding `COc1ccc2c(c1)CN(C(=O)C(=O)O)CCS2` [ARM036], the “abnormal behaviors in open field test (time center versus periphery) and EPM test (time open-arm versus closed-arm)” value in [6] is given as “no effect”. Also, in the data set on adrenergic pathway, the PKA activity entry is recorded as “no effect” and the brain norepinephrine entry is reported as “no effect”. In data set [3], the “latency to find and reach the hidden platform” value was determined as 29 ± 3 s. Also, in [4], the “crossing of the blood-brain barrier (BBB)” value was “does not cross the blood-brain barrier”. In the data set with MI mice [5], the “hippocampal FDG metabolism” value was 80±8. In the data set with TGF-β pathway, the “NOX2 binding to hippocampal RyR2” value is “no effect”, the TGF-β levels result is given as “no effect” and the “phosphorylation of SMAD3” value is recorded as “no effect”. For the same compound, the “LTP (hippocampal synaptic plasticity)” value with MI mice [7] is “no effect”. Moreover, in data set [8], the discrimination index is 15%±3%.
